Experimental data: article PMC6364906 (PLoS ONE, 2019)
≈ marks a conversion by molar mass, not a printed value.

How the values were obtained:
bacterial dipeptidases = conditions: cited from earlier work
P. aeruginosa GRP-0019 = type: cell-based; conditions: geometric mean, broth microdilution, wild-type strain
Method: (§1) The statistical significance of the difference in geometric means of MIC and MBC was determined with the Mann-Whitney U test.

P. aeruginosa GRP-0049 = type: cell-based; conditions: geometric mean, broth microdilution, MDR carbapenem susceptible strain
Method: as §1

P. aeruginosa GRP-0036 = type: cell-based; conditions: geometric mean, broth microdilution, MDR carbapenem resistant strain
Method: as §1

K. pneumoniae GRP-0107 = experiment: MIC/MBC by broth microdilution (CLSI); type: cell-based, Klebsiella pneumoniae; conditions: geometric mean, wild-type strain
Method: as §1

P. aeruginosa ATCC 27853 = experiment: MIC/MBC by broth microdilution (CLSI); type: cell-based, Pseudomonas aeruginosa; conditions: geometric mean, wild-type reference strain
Method: as §1

Row | MIC [range] (P. aeruginosa GRP-0019) [µg/mL] | MIC [range] (P. aeruginosa GRP-0049) [µg/mL] | MIC [range] (P. aeruginosa GRP-0036) [µg/mL] | MIC [range] (K. pneumoniae GRP-0107) [µg/mL] | MIC [range] (P. aeruginosa ATCC 27853) [µg/mL] | SMILES | inhibition of bacterial dipeptidases (bacterial dipeptidases)
1 | – | – | – | – | – | CC1(C)C[C@@H]1C(=O)N/C(=C\CCCCSC[C@H](N)C(=O)O)C(=O)O [cilastatin] | very inefficient inhibitor
2 | 0.5 (≈ 1.67 µM) | 1.2 (≈ 4.01 µM) | 8 (≈ 26.7 µM) | 0.5 (≈ 1.67 µM) | 1.0 (≈ 3.34 µM) | C[C@@H](O)[C@H]1C(=O)N2C(C(=O)O)=C(SCCN=CN)C[C@H]12 [imipenem] | –
